Several values for one entry are separate records, joined by “and”; a condition that tells them apart may be missing. Equal entries are not always repeated. Where two headings read alike, the source gives them in different places.
System: rgRSV224, an engineered RSV strain that encodes for eGFP
Type: cell-based
Protocol: To evaluate their combined antiviral effect against RSV, in vitro combination studies were performed with JNJ-53718678 (“compound A”) and various compounds with different mechanisms-of-action (“compound B”). In short, 9 concentrations of Compound A were combined with 6 or 7 concentrations of a certain compound B. HeLa cells were infected with rgRSV224, an engineered RSV strain that encodes for eGFP (Hallak L K, Spillmann D, Collins P L, Peeples M E. Glycosaminoglycan sulfation requirements for respiratory syncytial virus infection; Journal of Virology (2000), 74(22), 10508-13), in the presence of various concentrations of compound A and compound B individually or in combination.
Compound stock solutions were 5 mM in 100% DMSO, with following exceptions: ribavirin, 20 mM; A 60444, 10 mM; CR9501, 141 μM in PBS; palivizumab, 156 μM in PBS; MDT 637, 100 μM in methanol. First, the compounds were serially diluted in 3-fold dilution series in DMSO; CR9501 and palivizumab were serially diluted in cell culture medium, and MDT 637 in methanol. The concentration series were diluted 100-fold in cell culture medium to achieve a combination matrix. 10 μL of these compound solutions were transferred to black 384-well clear-bottom tissue-culture treated plates. Next, 10 μL of a […] HeLa cell suspension was added to achieve 3000 cells per well. Finally, 10 μL of diluted virus stock was added to achieve an MOI of 1. The final DMSO concentration of all wells was 0.5% DMSO, except for the MDT 637 experiment where it was 0.25% DMSO+0.25% methanol. Each combination of compound concentrations was tested in 4 replicates on 3 separate plates, resulting in a total of 12 replicates. The plates were incubated for 3 days at 37° C. in a humidified atmosphere at 5% CO2. The GFP signal was measured with PerkinElmer EnVision apparatus using a 405 nm filter.
The method of Harbron (Statistics in Medicine, 2010, DOI:10.1002/sim3916) was used to assess synergy. Using the Loewe definition, two compounds are characterized as being additive, synergistic or antagonistic by:
where d1 and d2 represent the doses of the two compounds that in combination produce an effect y, and Dy,1 and Dy,2 represent the doses of the two compounds that produce the same effect, y, when administered as a monotherapy. A 3PL model (3-parameter log-logistic model) was used for the monotherapy dose-response data, where the baseline response was fixed at one.
Following Harbron's approach, the following models were fitted to the data: • “Additive”: assuming no interaction between the two compounds • “Uniform”: assuming a constant interaction index τ across all dose combinations • “Linear A”: assuming the interaction index linearly depends on the log 10 dose of compound A: z=τ1+τ2 log 10(dA) • “Separate A”: assuming the interaction index τ takes a separate value for each dose of compound A The latter two models were also considered for compound B: • “Linear B”: assuming the interaction index linearly τ depends on the log 10 dose of compound B: τ=τ1+τ2 log 10(dB) • “Separate B”: assuming the interaction index τ takes a separate value for each dose of compound B

## CS(=O)(=O)CCCn1c(Cn2c(=O)n(CC(F)(F)F)c3ccncc32)cc2cc(Cl)ccc21 [Compound A, 3-({5-chloro-1-[3-(methylsulfonyl)propyl]-1H-indol-2-yl}methyl)-1-(2,2,2-trifluoroethyl)-1,3-dihydro-2H-imidazo[4,5-c]pyridin-2-one]
A = 0.19 nM, B (A-60444) = 0
  normalized GFP signal: 0.96
A = 0.19 nM, B (AZ-27) = 0
  normalized GFP signal: 0.98
A = 0.19 nM, B (CAS 851658-10-1) = 0
  normalized GFP signal: 0.99
A = 0.19 nM, B (CR9501) = 0
  normalized GFP signal: 1.05
A = 0.19 nM, B (GS-5806) = 0
  normalized GFP signal: 0.99
A = 0.19 nM, B (MDT-637) = 0
  normalized GFP signal: 0.98
A = 0.19 nM, B (palivizumab) = 0
  normalized GFP signal: 1.04
A = 0.19 nM, B (pulmocide compound) = 0
  normalized GFP signal: 0.96
A = 0.19 nM, B (ribavirin) = 0
  normalized GFP signal: 0.97
A = 0.57 nM, B (A-60444) = 0
  normalized GFP signal: 0.95
A = 0.57 nM, B (AZ-27) = 0
  normalized GFP signal: 0.96
A = 0.57 nM, B (CAS 851658-10-1) = 0
  normalized GFP signal: 0.96
A = 0.57 nM, B (CR9501) = 0
  normalized GFP signal: 1.01
A = 0.57 nM, B (GS-5806) = 0
  normalized GFP signal: 0.93
A = 0.57 nM, B (MDT-637) = 0
  normalized GFP signal: 0.97
A = 0.57 nM, B (palivizumab) = 0
  normalized GFP signal: 0.98
A = 0.57 nM, B (pulmocide compound) = 0
  normalized GFP signal: 0.92
A = 0.57 nM, B (ribavirin) = 0
  normalized GFP signal: 0.95
A = 1.7 nM, B (A-60444) = 0
  normalized GFP signal: 0.83
A = 1.7 nM, B (AZ-27) = 0
  normalized GFP signal: 0.89
A = 1.7 nM, B (CAS 851658-10-1) = 0
  normalized GFP signal: 0.83
A = 1.7 nM, B (CR9501) = 0
  normalized GFP signal: 0.89
A = 1.7 nM, B (GS-5806) = 0
  normalized GFP signal: 0.83
A = 1.7 nM, B (MDT-637) = 0
  normalized GFP signal: 0.85
A = 1.7 nM, B (palivizumab) = 0
  normalized GFP signal: 0.86
A = 1.7 nM, B (pulmocide compound) = 0
  normalized GFP signal: 0.78
A = 1.7 nM, B (ribavirin) = 0
  normalized GFP signal: 0.87
A = 5.1 nM, B (A-60444) = 0
  normalized GFP signal: 0.55
A = 5.1 nM, B (AZ-27) = 0
  normalized GFP signal: 0.71
A = 5.1 nM, B (CAS 851658-10-1) = 0
  normalized GFP signal: 0.50
A = 5.1 nM, B (CR9501) = 0
  normalized GFP signal: 0.64
A = 5.1 nM, B (GS-5806) = 0
  normalized GFP signal: 0.47
A = 5.1 nM, B (MDT-637) = 0
  normalized GFP signal: 0.43
A = 5.1 nM, B (palivizumab) = 0
  normalized GFP signal: 0.57
A = 5.1 nM, B (pulmocide compound) = 0
  normalized GFP signal: 0.56
A = 5.1 nM, B (ribavirin) = 0
  normalized GFP signal: 0.63
A = 15 nM, B (A-60444) = 0
  normalized GFP signal: 0.38
A = 15 nM, B (AZ-27) = 0
  normalized GFP signal: 0.45
A = 15 nM, B (CAS 851658-10-1) = 0
  normalized GFP signal: 0.31
A = 15 nM, B (CR9501) = 0
  normalized GFP signal: 0.41
A = 15 nM, B (GS-5806) = 0
  normalized GFP signal: 0.30
A = 15 nM, B (MDT-637) = 0
  normalized GFP signal: 0.26
A = 15 nM, B (palivizumab) = 0
  normalized GFP signal: 0.38
A = 15 nM, B (pulmocide compound) = 0
  normalized GFP signal: 0.43
A = 15 nM, B (ribavirin) = 0
  normalized GFP signal: 0.39
A = 46 nM, B (A-60444) = 0
  normalized GFP signal: 0.28
A = 46 nM, B (AZ-27) = 0
  normalized GFP signal: 0.25
A = 46 nM, B (CAS 851658-10-1) = 0
  normalized GFP signal: 0.19
A = 46 nM, B (CR9501) = 0
  normalized GFP signal: 0.28
A = 46 nM, B (GS-5806) = 0
  normalized GFP signal: 0.21
A = 46 nM, B (MDT-637) = 0
  normalized GFP signal: 0.16
A = 46 nM, B (palivizumab) = 0
  normalized GFP signal: 0.28
A = 46 nM, B (pulmocide compound) = 0
  normalized GFP signal: 0.36
A = 46 nM, B (ribavirin) = 0
  normalized GFP signal: 0.25
A = 139 nM, B (A-60444) = 0
  normalized GFP signal: 0.14
A = 139 nM, B (AZ-27) = 0
  normalized GFP signal: 0.17
A = 139 nM, B (CAS 851658-10-1) = 0
  normalized GFP signal: 0.10
A = 139 nM, B (CR9501) = 0
  normalized GFP signal: 0.21
A = 139 nM, B (GS-5806) = 0
  normalized GFP signal: 0.11
A = 139 nM, B (MDT-637) = 0
  normalized GFP signal: 0.06
A = 139 nM, B (palivizumab) = 0
  normalized GFP signal: 0.17
A = 139 nM, B (pulmocide compound) = 0
  normalized GFP signal: 0.20
A = 139 nM, B (ribavirin) = 0
  normalized GFP signal: 0.15
A = 417 nM, B (A-60444) = 0
  normalized GFP signal: 0.07
A = 417 nM, B (AZ-27) = 0
  normalized GFP signal: 0.07
A = 417 nM, B (CAS 851658-10-1) = 0
  normalized GFP signal: 0.06
A = 417 nM, B (CR9501) = 0
  normalized GFP signal: 0.10
A = 417 nM, B (GS-5806) = 0
  normalized GFP signal: 0.06
A = 417 nM, B (MDT-637) = 0
  normalized GFP signal: 0.02
A = 417 nM, B (palivizumab) = 0
  normalized GFP signal: 0.09
A = 417 nM, B (pulmocide compound) = 0
  normalized GFP signal: 0.11
A = 417 nM, B (ribavirin) = 0
  normalized GFP signal: 0.08
A = 1250 nM, B (A-60444) = 0
  normalized GFP signal: 0.04
A = 1250 nM, B (AZ-27) = 0
  normalized GFP signal: 0.04
A = 1250 nM, B (CAS 851658-10-1) = 0
  normalized GFP signal: 0.04
A = 1250 nM, B (CR9501) = 0
  normalized GFP signal: 0.06
A = 1250 nM, B (GS-5806) = 0
  normalized GFP signal: 0.03
A = 1250 nM, B (MDT-637) = 0
  normalized GFP signal: −0.00
A = 1250 nM, B (palivizumab) = 0
  normalized GFP signal: 0.05
A = 1250 nM, B (pulmocide compound) = 0
  normalized GFP signal: 0.06
A = 1250 nM, B (ribavirin) = 0
  normalized GFP signal: 0.04

## O=C(NC1CC1)c1cc2c(s1)-c1ccccc1N(C(=O)c1ccc(NC(=O)c3cccnc3N3CCC4(CC3)COC4)cc1)CC2 [AZ-27, N-cyclopropyl-5,6-dihydro-6-[4-[[[2-(2-oxa-7-azaspiro [3.5]non-7-yl)-3-pyridinyl]carbonyl]-amino]benzoyl]-4H-thieno [3,2-d][1]benzazepine-2-carboxamide, reference compound]
A = 0, B (AZ-27) = 17
  normalized GFP signal: 1.03
A = 0, B (AZ-27) = 51
  normalized GFP signal: 1.00
A = 0, B (AZ-27) = 154
  normalized GFP signal: 0.53
A = 0, B (AZ-27) = 463
  normalized GFP signal: 0.07
A = 0, B (AZ-27) = 1389
  normalized GFP signal: 0.01
A = 0, B (AZ-27) = 4167
  normalized GFP signal: 0.00

## Cc1nnnn1/N=C/c1ccc(O)c(C(c2ccc(O)cc2)c2cc(/C=N/n3nnnc3C)ccc2O)c1 [MDT-637, reference compound]
  normalized GFP signal: 0.99 and 0.95
A = 0, B (MDT-637) = 0.038
  normalized GFP signal: 1.01
A = 0, B (MDT-637) = 1
  normalized GFP signal: 0.93
A = 0, B (MDT-637) = 3.1
  normalized GFP signal: 0.75
A = 0, B (MDT-637) = 9.3
  normalized GFP signal: 0.14
A = 0, B (MDT-637) = 28
  normalized GFP signal: 0.01

Source: patent publication US10363253B2, “Combination products for the treatment of RSV” (priority 2016, dated 2019)
